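Where inhibition never reached the appropriate level, the endpoint shown equals the highest concentration tested. Otherwise, values were interpolated linearly from a five-concentration, 48-hour dose response in 96-well plates. TGI marks complete inhibition of growth.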
Legend:
Assay in all cases: inhibition of tumour cell growth, NCI panel, 48 h
SK-OV-3 ovarian = system: SK-OV-3 ovarian
OVCAR-5 ovarian = system: OVCAR-5 ovarian
K-562 leukemia = system: K-562 leukemia
786-0 renal = system: 786-0 renal
ACHN renal = system: ACHN renal
UACC-257 melanoma = system: UACC-257 melanoma
OVCAR-8 ovarian = system: OVCAR-8 ovarian
NCI/ADR-RES ovarian = system: NCI/ADR-RES ovarian
OVCAR-3 ovarian = system: OVCAR-3 ovarian
COLO 205 colon = system: COLO 205 colon
HCC-2998 colon = system: HCC-2998 colon
UACC-62 melanoma = system: UACC-62 melanoma
NCI-H522 lung = system: NCI-H522 lung
RXF 393 renal = system: RXF 393 renal
MDA-MB-435 = system: MDA-MB-435
HS 578T breast = system: HS 578T breast
U251 CNS = system: U251 CNS
HOP-62 NSCLC = system: HOP-62 NSCLC
DU-145 prostate = system: DU-145 prostate
HCT-15 colon = system: HCT-15 colon
NCI-H460 lung = system: NCI-H460 lung
HOP-92 NSCLC = system: HOP-92 NSCLC
MCF7 breast = system: MCF7 breast
SR leukemia = system: SR leukemia
MDA-MB-231 breast = system: MDA-MB-231 breast
SF-295 CNS = system: SF-295 CNS
SK-MEL-2 melanoma = system: SK-MEL-2 melanoma
SF-268 CNS = system: SF-268 CNS
UO-31 renal = system: UO-31 renal
HT29 colon = system: HT29 colon
SN12C renal = system: SN12C renal
MDA-N = system: MDA-N
LOX IMVI melanoma = system: LOX IMVI melanoma
SW-620 colon = system: SW-620 colon
HCT-116 colon = system: HCT-116 colon
SF-539 CNS = system: SF-539 CNS
RPMI-8226 leukemia = system: RPMI-8226 leukemia
SNB-75 CNS = system: SNB-75 CNS
EKVX NSCLC = system: EKVX NSCLC
TK-10 renal = system: TK-10 renal
OVCAR-4 ovarian = system: OVCAR-4 ovarian
NCI-H226 lung = system: NCI-H226 lung
IGROV1 ovarian = system: IGROV1 ovarian
MOLT-4 leukemia = system: MOLT-4 leukemia
KM12 colon = system: KM12 colon
SNB-19 CNS = system: SNB-19 CNS
A498 renal = system: A498 renal
PC-3 prostate = system: PC-3 prostate
SK-MEL-28 melanoma = system: SK-MEL-28 melanoma
BT-549 breast = system: BT-549 breast
T-47D breast = system: T-47D breast
A549 NSCLC = system: A549 NSCLC
SK-MEL-5 melanoma = system: SK-MEL-5 melanoma
M14 melanoma = system: M14 melanoma
MALME-3M melanoma = system: MALME-3M melanoma
NCI-H23 lung = system: NCI-H23 lung
CAKI-1 renal = system: CAKI-1 renal
CCRF-CEM leukemia = system: CCRF-CEM leukemia
HL-60(TB) leukemia = system: HL-60(TB) leukemia

N#Cc1c(-c2ccc([N+](=O)[O-])cc2)cc(-c2ccc(Nc3ccnc4cc(C(F)(F)F)ccc34)cc2)nc1N
TGI (SK-OV-3 ovarian): > 71.6 µM
TGI (OVCAR-5 ovarian): > 73.8 µM
TGI (K-562 leukemia): 19.1 µM
TGI (786-0 renal): 15.6 µM
TGI (ACHN renal): > 68.8 µM
TGI (UACC-257 melanoma): > 85.2 µM
TGI (OVCAR-8 ovarian): > 60.2 µM
TGI (NCI/ADR-RES ovarian): 35.3 µM
TGI (OVCAR-3 ovarian): 29.3 µM
TGI (COLO 205 colon): > 75.9 µM
TGI (HCC-2998 colon): > 55.4 µM
TGI (UACC-62 melanoma): > 100 µM
TGI (NCI-H522 lung): > 100 µM
TGI (RXF 393 renal): 51.7 µM
TGI (MDA-MB-435): 33.3 µM
TGI (HS 578T breast): 66.1 µM
TGI (U251 CNS): 21.9 µM
TGI (HOP-62 NSCLC): 51.3 µM
TGI (DU-145 prostate): > 43.3 µM
TGI (HCT-15 colon): 23.6 µM
TGI (NCI-H460 lung): > 66.5 µM
TGI (HOP-92 NSCLC): 42 µM
TGI (MCF7 breast): 10.7 µM
TGI (SR leukemia): > 20 µM
TGI (MDA-MB-231 breast): 41.7 µM
TGI (SF-295 CNS): 37.6 µM
TGI (SK-MEL-2 melanoma): > 59.7 µM
TGI (SF-268 CNS): > 72 µM
TGI (UO-31 renal): 36.5 µM
TGI (HT29 colon): 34.2 µM
TGI (SN12C renal): 46.6 µM
TGI (MDA-N): 38.3 µM
TGI (LOX IMVI melanoma): > 63.3 µM
TGI (SW-620 colon): 59.2 µM
TGI (HCT-116 colon): 27.5 µM
TGI (SF-539 CNS): > 63.8 µM
TGI (RPMI-8226 leukemia): > 54.5 µM
TGI (SNB-75 CNS): 49.8 µM
TGI (EKVX NSCLC): > 93.3 µM
TGI (TK-10 renal): > 69.8 µM
TGI (OVCAR-4 ovarian): 28.1 µM
TGI (NCI-H226 lung): > 70.1 µM
TGI (IGROV1 ovarian): 29 µM
TGI (MOLT-4 leukemia): 14.5 µM
TGI (KM12 colon): > 47.9 µM
TGI (SNB-19 CNS): 34.7 µM
TGI (A498 renal): > 71.3 µM
TGI (PC-3 prostate): 56.9 µM
TGI (SK-MEL-28 melanoma): 59.8 µM
TGI (BT-549 breast): > 75.6 µM
TGI (T-47D breast): 28.8 µM
TGI (A549 NSCLC): 26.8 µM
TGI (SK-MEL-5 melanoma): > 83.3 µM
TGI (M14 melanoma): 36.4 µM
TGI (MALME-3M melanoma): > 62.8 µM
TGI (NCI-H23 lung): > 62.3 µM
TGI (CAKI-1 renal): 41.3 µM
TGI (CCRF-CEM leukemia): > 29.7 µM

COc1ccc(/C=C2\C[C@H]3[C@@H]4CCC5=C[C@@H](N6CCCC6)CC[C@]5(C)[C@H]4CC[C@]3(C)[C@H]2O)cc1
TGI (SK-OV-3 ovarian): 14.8 µM
TGI (OVCAR-5 ovarian): 20.9 µM
TGI (K-562 leukemia): 11.8 µM
TGI (786-0 renal): 2.94 µM
TGI (ACHN renal): 11.7 µM
TGI (UACC-257 melanoma): 2.98 µM
TGI (OVCAR-8 ovarian): 16.4 µM
TGI (NCI/ADR-RES ovarian): 16.8 µM
TGI (OVCAR-3 ovarian): 8.26 µM
TGI (COLO 205 colon): 3.54 µM
TGI (HCC-2998 colon): 3.27 µM
TGI (UACC-62 melanoma): 3.28 µM
TGI (NCI-H522 lung): 7.36 µM
TGI (RXF 393 renal): 3.29 µM
TGI (MDA-MB-435): 4.47 µM
TGI (HS 578T breast): 8.66 µM
TGI (U251 CNS): 12.5 µM
TGI (HOP-62 NSCLC): 3.74 µM
TGI (DU-145 prostate): 20.8 µM
TGI (HCT-15 colon): 5.77 µM
TGI (NCI-H460 lung): 8.04 µM
TGI (HL-60(TB) leukemia): 4.21 µM
TGI (HOP-92 NSCLC): 9.51 µM
TGI (MCF7 breast): 5.84 µM
TGI (SR leukemia): 6.32 µM
TGI (MDA-MB-231 breast): 4.6 µM
TGI (SF-295 CNS): 5.52 µM
TGI (SK-MEL-2 melanoma): 3.6 µM
TGI (SF-268 CNS): 11.6 µM
TGI (UO-31 renal): 3.26 µM
TGI (HT29 colon): 3.15 µM
TGI (SN12C renal): 12.3 µM
TGI (MDA-N): 3.73 µM
TGI (LOX IMVI melanoma): 3.61 µM
TGI (HCT-116 colon): 5.45 µM
TGI (SF-539 CNS): 5.71 µM
TGI (RPMI-8226 leukemia): > 29.2 µM
TGI (SNB-75 CNS): 14.5 µM
TGI (EKVX NSCLC): 17 µM
TGI (TK-10 renal): 7.44 µM
TGI (OVCAR-4 ovarian): 13.9 µM
TGI (NCI-H226 lung): 10.9 µM
TGI (IGROV1 ovarian): 20 µM
TGI (MOLT-4 leukemia): > 45.4 µM
TGI (KM12 colon): 8.02 µM
TGI (SNB-19 CNS): 16.1 µM
TGI (A498 renal): 3.2 µM
TGI (PC-3 prostate): 8.17 µM
TGI (SK-MEL-28 melanoma): 3.66 µM
TGI (BT-549 breast): 14.1 µM
TGI (T-47D breast): 14.1 µM
TGI (A549 NSCLC): 7.59 µM
TGI (SK-MEL-5 melanoma): 2.91 µM
TGI (M14 melanoma): 2.9 µM
TGI (MALME-3M melanoma): 5.87 µM
TGI (NCI-H23 lung): 16.3 µM
TGI (CAKI-1 renal): 14.6 µM

CC(C)NC(=O)CN1CCN(C2=CC(=O)c3c(O)ccc(O)c3C2=O)CC1
TGI (SK-OV-3 ovarian): 77.1 µM
TGI (OVCAR-5 ovarian): 33.5 µM
TGI (K-562 leukemia): > 100 µM
TGI (786-0 renal): 42.4 µM
TGI (ACHN renal): 54.1 µM
TGI (UACC-257 melanoma): 19.8 µM
TGI (OVCAR-8 ovarian): > 54 µM
TGI (NCI/ADR-RES ovarian): 25.5 µM
TGI (OVCAR-3 ovarian): 6.56 µM
TGI (COLO 205 colon): 9.64 µM
TGI (HCC-2998 colon): 30.4 µM
TGI (UACC-62 melanoma): 13.3 µM
TGI (NCI-H522 lung): 34.5 µM
TGI (RXF 393 renal): 33.2 µM
TGI (MDA-MB-435): 3.76 µM
TGI (HS 578T breast): 62.5 µM
TGI (U251 CNS): 35.9 µM
TGI (HOP-62 NSCLC): 32.3 µM
TGI (DU-145 prostate): 29.7 µM
TGI (HCT-15 colon): 45.3 µM
TGI (NCI-H460 lung): 29.1 µM
TGI (HL-60(TB) leukemia): 5.99 µM
TGI (HOP-92 NSCLC): 38.3 µM
TGI (MCF7 breast): 9.35 µM
TGI (MDA-MB-231 breast): > 63.5 µM
TGI (SF-295 CNS): 32.6 µM
TGI (SK-MEL-2 melanoma): 34.3 µM
TGI (SF-268 CNS): 53.1 µM
TGI (UO-31 renal): 33.2 µM
TGI (HT29 colon): 12.3 µM
TGI (SN12C renal): 29.1 µM
TGI (MDA-N): 16.3 µM
TGI (LOX IMVI melanoma): 19.6 µM
TGI (SW-620 colon): 14.4 µM
TGI (HCT-116 colon): 9.79 µM
TGI (SF-539 CNS): 30.5 µM
TGI (RPMI-8226 leukemia): > 100 µM
TGI (SNB-75 CNS): 32.6 µM
TGI (EKVX NSCLC): 33.6 µM
TGI (TK-10 renal): 31.5 µM
TGI (OVCAR-4 ovarian): 20.3 µM
TGI (NCI-H226 lung): > 68.8 µM
TGI (IGROV1 ovarian): 28.4 µM
TGI (MOLT-4 leukemia): > 100 µM
TGI (KM12 colon): 33.2 µM
TGI (SNB-19 CNS): 37.2 µM
TGI (A498 renal): 46 µM
TGI (PC-3 prostate): > 80.5 µM
TGI (SK-MEL-28 melanoma): 31.6 µM
TGI (BT-549 breast): 32.1 µM
TGI (T-47D breast): 24.7 µM
TGI (A549 NSCLC): 35.2 µM
TGI (SK-MEL-5 melanoma): 7.78 µM
TGI (M14 melanoma): 22.3 µM
TGI (MALME-3M melanoma): 4.41 µM
TGI (NCI-H23 lung): 24.3 µM
TGI (CAKI-1 renal): > 60.7 µM
TGI (CCRF-CEM leukemia): > 95.2 µM
